Experiment [1] concerns anesthetized dogs. The experiment can be described thus: renal anesthetized dog screening protocol (renal vasodilator activity test, infusion). In kind it is in vivo. Details: renal blood flow / renal vascular resistance: dose or concentration left out as unconfirmed. The following applies: for renal vasodilators: primary test period of the screening protocol. From the text: Representative specific results are included in the examples.

Experiment [2] deals with spontaneously hypertensive rats (SHR). Description: spontaneously hypertensive rat test, diuretic naturetic assay. In kind it is in vivo. Here is the method:
In this test, male, Okamato-Aoki strain, spontaneously hypertensive rats, aged 16-19 weeks, are fasted, then, the following afternoon, the first dose of test compound is adminstered, along with a 25 ml/kg p.o. load of normal saline. The animals are, then, placed in metabolism cages and urine collected for three hours for analysis. Indirect systolic blood pressure and heart rate are measured by a tail-cuff. An identical second dose of test compound is adminstered. After two hours, blood pressure and heart rate are again tested. The test compound is usually administered p.o. or i.p. in saline with 0.02% ascorbic acid.

Experiment [3] concerns angiotensin coverting enzyme. Description: angiotensin converting enzyme inhibiting activity. Type of experiment: in vivo. The note with it: at 10 times its renally effective dose.
Experiment [4] deals with dopamine-sensitive adenylate cyclase system. Description: dopamine-sensitive adenylate cyclase system in vitro. Type of experiment: biochemical.
In experiment [5] the test system is toad bladder. Description: toad bladder anti-ADH assay.
Experiment [6] is described as follows: bradycardic effect (heart rate; test not specified). The note with it: in vivo.
Setting [7] is: 30 µg/kg/min, 3 anesthetized dogs.
The mark [8] stands for this setting: two anesthetized dogs, 3, 30 and 300.
[9] abbreviates: accumulative effect at 300 dose, 2 anesthetized dogs.

Structures can show the parent of a compound that is named as a salt.

For `C[C@H](NC(=O)[C@@H]1CCCN1CC(=O)O)C(=O)N1CCC[C@H]1C(=O)O` [Example 1 barium salt, N-carboxymethyl-L-propyl-L-alanyl-L-proline], in experiment [1] (setting [7]), the “decrease in renal vascular resistance” value came to 15% and the “increase in renal blood flow” value is 21.7%.
With `O=C(O)CN1CCC[C@H]1C(=O)N[C@@H](Cc1ccccc1)C(=O)N1CCC[C@H]1C(=O)O` [Example 2 barium salt, N-carboxymethyl-L-prolyl-L-phenylalanyl-L-proline], the “activity within the parameters of anesthetized dog screening test” value in experiment [1] (dog, in vivo) is given as “not active”.
For `O=C(O)CN1CCC[C@H]1C(=O)N[C@@H](Cc1ccccc1)C(=O)N1CCC[C@H]1C(=O)O` [Example 2 sulfate, N-carboxymethyl-L-prolyl-L-phenylalanyl-L-proline], the renal blood flow result in experiment [1] (30 and 300) is given as “increased renal blood flow”.
With `O=C(O)CN1CCC[C@H]1C(=O)NCCC(=O)N1CCC[C@H]1C(=O)O` [Example 3, N-carboxymethyl-L-prolyi-o-alanyl-L-proline sulfate], in experiment [1] (Canis lupus familiaris, iv, anesthetized renal dog protocol, read-out: RVR-ED15), the ED15 came to 0.012 mg/kg. Also, in experiment [1] (setting [8]), the renal blood flow entry is listed as “increased renal blood flow” and the renal vascular resistance entry was “decreased renal vascular resistance”. The Urine in experiment [2] (25 mg/kg i.p., n=3, control 3) is on record as 16 ml/rat. In addition, the “K^9” value in experiment [2] (25 mg/kg i.p., n=3, control 85.12) turned out to be 242.53. Further, in experiment [2] (25 mg/kg i.p., n=3, control 126.76), the “Na⊕” value is 676.04. Besides, in experiment [2] (25 and 50 mg/kg i.p.), the “Na^l, K° or urine excretion” value is “significant increase”. Besides, the “angiotensin coverting enzyme inhibiting activity” value in experiment [3] is on record as “did not have angiotensin coverting enzyme inhibiting activity”. In experiment [4], the “stimulate or antagonize the dopamine-sensitive adenylate cyclase system” value is reported as “did not stimulate or antagonize”. Moreover, the “toad bladder anti-ADH assay activity” value in experiment [5] was “nor was it active”. In addition, the bradycardic effect entry in experiment [6] is given as “weak bradycardic effect”.
As to `C[C@H](NC(=O)[C@@H]1CCCN1CCC(=O)O)C(=O)N1CCC[C@H]1C(=O)O` [Example 4, N-(2-carboxyethyl)-L-prolyl-L-alanyl-L-proline], in experiment [1] (setting [9]), the “decrease in renal vascular resistance” value came out at 23% and the “increase in renal blood flow” value is 34%.
For the compound `CC(C(=O)O)N1CCC[C@H]1C(=O)NCCC(=O)N1CCC[C@H]1C(=O)O` (stereo partly drawn) [N-(1-carboxyethyl)-L-propyl-β-alanyl-L-proline, reference compound], the renal vasodilators result in experiment [1] was “inactive”.
With `NCCCC[C@H](NC(=O)[C@@H]1CCCN1CC(=O)O)C(=O)N1CCC[C@H]1C(=O)O` [N-carboxymethyl-L-propyl-L-lysyl-L-proline, reference compound], in experiment [1], the renal vasodilators entry was “inactive”.
Still for that read-out and setting: with `O=C(O)CN1CCCC1C(=O)NCC(=O)N1CCC[C@H]1C(=O)O` (stereo partly drawn) [N-carboxymethyl-propyl-glycyl-L-proline, reference compound] the entry was “inactive”.

The values are drawn from patent EP0080283B1, “N-carboxyalkylproline-containing tripeptides” (SMITHKLINE BECKMAN CORPORATION, priority 1981, dated 1983).
